Key:
[1] = system: human mononuclear lymphoma cell THP1; assay: MTT test of inhibiting cancer cells, THP1; type: cell-based; conditions: THP-1, 72 hours, FIG. 6, read-out: IC50 value, growth of THP1
Method: (§1) Cancer cells of exponential growth phase were inoculated on 96-well plate, 2×10^4 cells/well, added with drug until final drug concentrations were: 500, 250, 125, 62.5, 31.25, 15.625 and 7.8125 μg/mL, cultured at 37° C. in 5% CO2 cell culture incubator for 72 hours, then added with MTT, 10 μL/well, incubated in dark at 37° C. for 4 hours, culture medium was removed, 150 μL of DMSO or acidified isopropanol was added, vibrated for 5 minutes, and then OD values were measured under wavelength of 570 nm. This was repeated for 3 times, and a blank control was set. These cell strains used the same culture medium, i.e., RPMI1640 culture medium containing 10% fetal bovine serum and 1% double antibody (penicillin and steptomycin).
(§2) Calculation Formula: Cell survival rate=(OD value of test group/OD value of control group)×100%.

mice lymphoma cell YAC-1 = assay: MTT test of inhibiting cancer cells, YAC-1; type: cell-based; conditions: Mus musculus, 72 hours, FIG. 5, read-out: IC50 value, growth of YAC-1
Method: as §1, §2

[2] = system: human colon cancer cell strain HCT116; assay: MTT test of inhibiting cancer cells, HCT116; type: cell-based; conditions: 72 hours, FIG. 1, concentration-effect relationship
Method: as §1, §2

[3] = system: human tissue lymphoma cell U937; assay: MTT test of inhibiting cancer cells, U937; type: cell-based; conditions: U-937, 72 hours, FIG. 7, read-out: IC50 value, growth of U937
Method: as §1, §2

HepG2 cells = assay: MTT test of inhibiting cancer cells, HepG2; type: cell-based; conditions: Homo sapiens, 72 hours, FIG. 3, read-out: IC50 value, growth of human hepatoma cell line
Method: as §1, §2

[4] = biological target: T1, Porcine pancreatic lipase (Sus scrofa, UniProt P00591); assay: Test of activity of inhibiting lipase (copper oleate colorimetry, olive oil substrate); type: biochemical, pig; conditions: for Absorbance: 714 nm, blank control 0.6680; for Enzyme activity: blank control 1.69; for Concentration of generated oleic acid: blank control 2.75
T1 construct: purchased Sigma
T1 sequence (P00591 1-450): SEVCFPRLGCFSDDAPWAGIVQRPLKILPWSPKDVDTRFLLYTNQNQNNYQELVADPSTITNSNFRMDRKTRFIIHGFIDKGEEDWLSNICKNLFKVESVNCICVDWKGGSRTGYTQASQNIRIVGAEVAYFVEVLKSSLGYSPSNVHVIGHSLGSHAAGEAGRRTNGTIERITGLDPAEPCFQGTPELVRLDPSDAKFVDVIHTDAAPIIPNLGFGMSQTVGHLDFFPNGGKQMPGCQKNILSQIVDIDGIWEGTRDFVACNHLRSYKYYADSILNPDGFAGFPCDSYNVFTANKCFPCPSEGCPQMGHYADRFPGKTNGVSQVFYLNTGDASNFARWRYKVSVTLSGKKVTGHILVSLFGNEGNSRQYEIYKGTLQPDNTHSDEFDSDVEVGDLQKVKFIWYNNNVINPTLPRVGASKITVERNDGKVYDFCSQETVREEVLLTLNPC
Method: 2.1 Preparation of light absorbance working curve for fatty acid: a series of oleic acid-toluene solutions with different concentrations (0-3.5 mmol/L, separately being 0, 0.225, 0.45, 0.675, 0.9, 1.125, 1.35, 1.8, 2.25, 2.7, and 3.5 mmol/L), 4 mL of each was taken and placed in conical flask, added with 1 mL of color developing agent, stirred with magnetic force for 3 minutes, oleic acid molecules and copper ions formed a green complex compound, after centrifugation, organic phase of upper layer was taken and measured at 714 nm to determine light absorbance.
2.2 Enzyme solution was 0.5 mg/mL pancreatic lipase solution; buffer solution was 0.07M NaH2PO4—K2HPO4 phosphate buffer solution (pH 7.0); color developing agent was 5% copper acetate solution, which was regulated with pyridine to have pH 6.1.
3 mL of 0.07M phosphate buffer solution and 1 mL of olive oil were pre-heated at a constant temperature of 37° C. for 5 minutes in water bath under agitation with a magnetic stirrer, added with 1.3 mL of enzyme solution (negative control was that without enzyme inhibitor; positive control is that added with 100 μL of 0.1 mg/mL orlistat solution; […]), stirred with magnetic force for 10 minutes, immediately added with 8 mL of toluene, stirred continuously for 2 minutes, the reaction was terminated, the generated oleic acid was extracted. The solutions were transferred to centrifuge tube, centrifuged under 4000 rpm for 10 minutes, and the organic phase and water phase were layered and clarified. 4 mL of the upper layer organic phase was taken and placed in a small conical flask, added with 1 mL of color developing agent, stirred with magnetic stirrer for 3 minutes, the generated oleic acid reacted with copper ions to form green complex compound. After centrifugation under 4000 rpm for 10 minutes, the upper layer of toluene solution containing copper oleate was taken, and measured with a spectrophotometer at 714 nm to determine its light absorbance. A blank solution without lipase was prepared as control by the same method, and concentration of fatty acid could be determined by referring to light absorbance working curve of oleic acid.
Enzyme activity unit of lipase was defined as follows: an enzyme amount to release 1 μmol fatty acid under certain condition was defined as 1 unit of lipase activity (U).
The following formula was used to calculate enzyme activity: X=(cV)/(tV′)
wherein: X represents enzyme activity of lipase, U/mL; c represents concentration of fatty acid, […]; V represents volume of fatty acid solution, mL; V′ represents amount of enzyme solution, mL; t represents action time, minute. Inhibition rate=[(enzyme activity of lipase−enzyme activity of lipase after inhibition)/enzyme activity of lipase]×100%

[5] = system: mice melanoma cell B16-F10; assay: MTT test of inhibiting cancer cells, B16-F10; type: cell-based; conditions: Mus musculus, 72 hours, FIG. 8, read-out: IC50 value, growth of B16-F10
Method: as §1, §2

[6] = system: mice sarcoma cell line S180; assay: MTT test of inhibiting cancer cells, S180; type: cell-based; conditions: 72 hours, FIG. 4, concentration-effect relationship
Method: as §1, §2

[7] = system: mice hepatoma cell line H22; assay: MTT test of inhibiting cancer cells, H22; type: cell-based; conditions: Mus musculus, 72 hours, FIG. 2, read-out: IC50 value, growth of H22
Method: as §1, §2

[8] = final concentration of inhibitor in the system 111 μg/mL
[9] = final concentration of inhibitor in the system 166 μg/mL
[10] = final concentration of inhibitor in the system 203 μg/mL
[11] = final concentration of inhibitor in the system 240 μg/mL
[12] = final concentration of inhibitor in the system 333 μg/mL

**Q.** With C[C@@H](C(O)C1OC2C[C@H]3C4=CC=C5CC(O)CC[C@]5(C)[C@H]4CC[C@]3(C)[C@H]2[C@@]1(C)O)C(C)(C)O (some centres unmarked) [Compound of Formula II, 16,22-epoxy-ergosta-5,7-dien-3,20,23,25-tetraol] as the compound, how does the IC50 [1] read?
**A.** ~250 mg/L

**Q.** What about the IC50 (mice lymphoma cell YAC-1) of the same compound?
**A.** ~62.5 mg/L

**Q.** And the “inhibition effect on growth of HCT116 (in words)” value [2]?
**A.** inhibition effect

**Q.** And the IC50 [3]?
**A.** ~50 mg/L

**Q.** What about the IC50 (HepG2 cells) of the same compound?
**A.** ~200 mg/L

**Q.** What about the Absorbance [4, 8] of the same compound?
**A.** 0.5665

**Q.** And the Absorbance [4, 9]?
**A.** 0.5035

**Q.** What about the Absorbance [4, 10] of the same compound?
**A.** 0.3998

**Q.** And the Absorbance [4, 11]?
**A.** 0.2743

**Q.** What about the Absorbance [4, 12] of the same compound?
**A.** 0.2611

**Q.** What about the Inhibition rate [4, 8] of the same compound?
**A.** 15.38%

**Q.** What about the Enzyme activity [4, 8] of the same compound?
**A.** 1.43 U/mL

**Q.** And the “Concentration of generated oleic acid” value [4, 8]?
**A.** 2.32 mM

**Q.** And the Inhibition rate [4, 9]?
**A.** 24.85%

**Q.** And the Enzyme activity [4, 9]?
**A.** 1.27 U/mL

**Q.** What about the “Concentration of generated oleic acid” value [4, 9] of the same compound?
**A.** 2.06 mM

**Q.** What about the Inhibition rate [4, 10] of the same compound?
**A.** 40.83%

**Q.** And the Enzyme activity [4, 10]?
**A.** 1.00 U/mL

**Q.** And the “Concentration of generated oleic acid” value [4, 10]?
**A.** 1.63 mM

**Q.** What about the Inhibition rate [4, 11] of the same compound?
**A.** 59.76%

**Q.** And the Enzyme activity [4, 11]?
**A.** 0.68 U/mL

**Q.** What about the “Concentration of generated oleic acid” value [4, 11] of the same compound?
**A.** 1.10 mM

**Q.** What about the Inhibition rate [4, 12] of the same compound?
**A.** 62.13%

**Q.** What about the Enzyme activity [4, 12] of the same compound?
**A.** 0.64 U/mL

**Q.** And the “Concentration of generated oleic acid” value [4, 12]?
**A.** 1.04 mM

**Q.** And the IC50 ([4]; read-out: IC50 value, inhibition of activity of lipase (converted))?
**A.** ~478 µM

**Q.** And the IC50 [5]?
**A.** ~62.5 mg/L

**Q.** What about the “inhibition effect on growth of S180 (in words)” value [6] of the same compound?
**A.** inhibition effect

**Q.** And the IC50 [7]?
**A.** ~50 mg/L

Reference: patent publication US11845774B2, “Sterol derivatives and preparation method and uses thereof” (BEIJING PEKING UNIVERSITY WBL BIOTECH CO., LTD., priority 2011, dated 2023)
